The values that follow come from patent US20100029682A1, “NOVEL CHROMENE AND THIOCHROMENE CARBOXAMIDE DERIVATIVES, METHODS FOR PREPARING SAME AND THERAPEUTIC APPLICATIONS OF SAME” (priority 2006, published 2010).

Where a name gives a salt, the structure may show the parent alone.

Turning to `O=C(NCCCCN1CCN(c2cccc(Cl)c2Cl)CC1)C1=Cc2ccccc2OC1` (as salt: hydrochloride) [Example 2, 2H-Chromene-3-carboxylic acid {4-[4-(2,3-dichlorophenyl)-piperazin-1-yl]-butyl}-amide], the melting point turned out to be 201 °C. For `O=C(NCCCCN1CCN(c2ccccc2Cl)CC1)C1=Cc2ccccc2OC1` (as salt: HCl) [Example 7, 2H-Chromene-3 carboxylic acid {4-[4-(2-chlorophenyl)-piperazin-1-yl]-butyl}-amide], the melting point is 201 °C. Turning to `O=C(NCCCCN1CCN(c2ccccc2C(F)(F)F)CC1)C1=Cc2ccccc2OC1` (as salt: HCl) [Example 17, 2H-Chromene-3 carboxylic acid {4-[4-(2-trifluoromethylphenyl)-piperazin-1-yl]-butyl}-amide], the melting point worked out at 161 °C.

Consider `O=C(NCCCCN1CCN(c2ccccc2F)CC1)C1=Cc2cc(Cl)ccc2OC1` (as salt: HCl) [Example 30, 6-Chloro-2H-chromene-3-carboxylic acid {4-[4-(2-fluorophenyl)-piperazin-1-yl]-butyl}-amide], for which the melting point stood at 214 °C. Under `Cc1ccc(N2CCN(CCCCNC(=O)C3=Cc4ccccc4OC3)CC2)c(C)c1` (as salt: HCl) [Example 10, 2H-Chromene-3-carboxylic acid {4-[4-(2,4-dimethylphenyl)-piperazin-1-yl]-butyl}-amide] stands 207 °C.

In turn, `COc1ccccc1N1CCN(CCCCNC(=O)C2=Cc3ccccc3SC2)CC1` (as salt: HCl) [Example 34, 2H-Thiochromene-3-carboxylic acid {4-[4-(2-methoxyphenyl)piperazin-1-yl]-butyl}-amide] registered a melting point of 208 °C. In turn, `CC1(C)Sc2ccccc2C=C1C(=O)NCCCCN1CCN(c2cccc(C#N)c2)CC1` (as salt: HCl) [Example 44, 2,2-Dimethyl-2H thiochromene-3-carboxylic acid {4-[4-(3-cyanophenyl)-piperazin-1-yl]-butyl}-amide] showed a melting point of 155 °C.

`N#Cc1ccccc1N1CCN(CCCCNC(=O)C2=Cc3ccccc3OC2)CC1` (as salt: HCl) [Example 12, 2H-Chromene-3-carboxylic acid {4-[4-(2-cyanophenyl)-piperazin-1-yl]-butyl}-amide]: the melting point came out at 194 °C. The figure for `COc1ccccc1N1CCN(CCCCNC(=O)C2=Cc3c(Br)ccc(OC)c3OC2)CC1` (as salt: HCl) [Example 50, 5-Bromo-8-methoxy-2H-chromene-3-carboxylic acid {4-[4-(2-methoxyphenyl)piperazin-1-yl]-butyl}-amide] is 176 °C; for `COc1ccc2c(c1)C=C(C(=O)NCCCCN1CCN(c3ccccc3OC)CC1)CO2` (as salt: HCl) [Example 54, 6-Methoxy-2H-chromene-3-carboxylic acid {4-[4-(2-methoxyphenyl)piperazin-1-yl]-butyl}-amide] it is 165 °C; for `O=C(NCCCCN1CCN(c2ccccc2F)CC1)C1=Cc2ccccc2OC1` (as salt: HCl) [Example 3, 2-H-Chromene-3-carboxylic acid {4-[4-(2-fluorophenyl)-piperazin-1-yl]-butyl}-amide] it is 231 °C. Turning to `O=C(NCCCCN1CCN(c2cccc(O)c2)CC1)C1=Cc2ccccc2OC1` (as salt: HCl) [Example 53, 2H Chromene-3-carboxylic acid {4-[4-(3-hydroxyphenyl)-piperazin-1-yl]-butyl}-amide], the melting point was found to be 199 °C. For the compound `O=C(NCCCCN1CCN(c2ccc(O)cc2)CC1)C1=Cc2ccccc2OC1` (as salt: HCl) [Example 59, 2H-Chromene-3-carboxylic acid {4-[4-(4-hydroxyphenyl)-piperazin-1-yl]-butyl}-amide], the melting point is 236 °C.

What is called melting point is the temperature, or range, at which the solid turns liquid.
